From PMC6563844, “Identification and in vivo Efficacy Assessment of Approved Orally Bioavailable Human Host Protein-Targeting Drugs With Broad Anti-influenza A Activity” (Frontiers in Immunology, 2019)
Where two headings read alike, the source gives them in different places.

Key:
[1] = tested on: H1N1 A/Puerto Rico/8/34 (PR8)
[2] = tested on: influenza strains A/Puerto Rico/8/34 (PR8), A/Mexico/InDRE4487/2009 (H1N1pdm09), A/Victoria/36/2011 (H3N2); type: cell-based, influenza A virus
PR8 [3] = tested on: PR8; parameters: species or system C57BL/6 mice; conditions: mouse, in vivo, po
PR8 [4] = assay: microbe, parasite or virus in culture; type: cell-based, influenza A virus
[5] = tested on: H1N1 and H3N2 influenza A viruses (PR8, H1N1pdm09, H3N2); assay: microbe, parasite or virus in culture; type: cell-based
[6] = tested on: H1N1pdm09 (A/Mexico/InDRE4487/2009); parameters: species or system ferrets (mustela putorius furo); conditions: in vivo
MTT assay (cytotoxicity) = conditions: dog
Description: (§1) The MTT assay was performed according to the manufacturer's protocol (Thermo Fisher Vybrant MTT Cell Proliferation Assay Kit). Briefly, MDCK cells grown in a 96-well-plate were treated with the respective drugs at 5-fold descending concentrations starting at 500 mM or left untreated. After 24 h, medium was replaced by PBS containing 1 mM MTT. After incubation for 4 h at 37°C, supernatants were removed, mixed with DMSO and further incubated for 10 min at 37°C before absorption was measured at 562 nm using a PHOmo Microplate reader. To calculate the relative cytotoxicity, the absorbance of untreated cells was set to 1. The 50% cytotoxic concentration (CC50) was calculated using GraphPad 6, and the selectivity index (SI) represents the ratio of CC50 to EC50.

[7] = tested on: H3N2 (A/Victoria/36/2011); assay: microbe, parasite or virus in culture; type: cell-based, influenza A virus
[8] = tested on: pH1N1 (H1N1pdm09 A/Mexico/InDRE4487/2009); assay: microbe, parasite or virus in culture; type: cell-based, influenza A virus
MDCK cells = assay: MTT assay (cytotoxicity); conditions: MDCK cells, 24 h, MTT
Description: as §1

in vitro = conditions: dog
Description: as §1

[9] = read-out: EC50 (50% effective dose)

Nc1ncnc2c1ncn2[C@@H]1O[C@H](COP(=O)(O)OP(=O)(O)OP(=O)(O)O)[C@@H](O)[C@H]1O [Adenosine triphosphate]
Inhibitory effect [1]: No inhibition | antiviral activity in initial screen [1]: no antiviral activity

NCCCC(O)(P(=O)(O)O)P(=O)(O)O [Alendronate]
Inhibitory effect [1]: toxic | antiviral activity [1]: no antiviral activity

N=C(N)NC(=O)c1nc(Cl)c(N)nc1N [Amiloride]
Inhibitory effect [1]: No inhibition | antiviral activity in initial screen [1]: no antiviral activity

CN(C)/N=N/c1[nH]cnc1C(N)=O [Dacarbazine]
Inhibitory effect [1]: no inhibition | antiviral activity in initial screen [1]: no antiviral activity

COc1ccc2c(c1)[C@]13CCCC[C@@H]1[C@H](C2)N(C)CC3 [Dextromethorphan]
reduction of viral titers [2]: around 1,000 fold | effect on lung viral titers (PR8 [3]): more variable but significant reduction | EC50 (PR8 [4]; Influenza A virus, PR8, MDCK): 48.7 ± 2.3 µM | EC50 [5, 9]: 5 to 50 µM | clinical score [6]: significantly lower peak score | weight loss [6]: < 10% | body weight effect ([6]; po): slightly increase the weight loss | effect on nasal wash titers ([6]; po): no effect | CC50 at 24 h (MTT assay (cytotoxicity)): 3546 ± 11.1 µM | EC50 ([7]; Influenza A virus, H3N2, MDCK): 51.7 ± 4.2 µM | Inhibitory effect (fold inhibition) [1]: >10-fold inhibition | antiviral activity in initial screen [1]: able to inhibit infection at doses above 50 μM without causing toxicity | EC50 ([8]; Influenza A virus, MDCK, pH1N1): 50.8 ± 3.3 µM

CC(O)(P(=O)(O)O)P(=O)(O)O [Etidronic Acid]
Inhibitory effect [1]: No inhibition | antiviral activity in initial screen [1]: no antiviral activity

O=[N+]([O-])[O-].O=[N+]([O-])[O-].O=[N+]([O-])[O-].[Ga+3] [Gallium nitrate]
reduction of viral titers [2]: around 10 fold | effect on lung viral titers (PR8 [3]): no significant effect | EC50 (PR8 [4]; read-out: EC50): 54.8 ± 2.2 µM | CC50 (MDCK cells): 716 ± 116 µM | EC50 ([7]; read-out: EC50): 5.7 ± 0.9 µM | Inhibitory effect (fold inhibition) [1]: >10-fold inhibition | antiviral activity in initial screen [1]: able to inhibit infection at doses above 50 μM without causing toxicity | EC50 ([8]; pH1N1): 55.3 ± 2.9 µM

CCCCC1=NC2(CCCC2)C(=O)N1Cc1ccc(-c2ccccc2-c2nnn[nH]2)cc1 [Irbesartan]
Inhibitory effect [1]: toxic | antiviral activity [1]: no antiviral activity | toxicity in the screen [1]: pronounced toxicity

CC(C)NCC(O)c1ccc(O)c(O)c1 (centres unmarked) [Isoproterenol]
Inhibitory effect [1]: toxic | antiviral activity [1]: no antiviral activity | toxicity in the screen [1]: pronounced toxicity

CN1CCC(=C2c3ccccc3CC(=O)c3sccc32)CC1 [Ketotifen]
reduction of viral titers [2]: 100 fold | EC50 (PR8 [4]; Influenza A virus, PR8, MDCK): 5.9 ± 0.2 µM | EC50 [5, 9]: 5 to 50 µM | EC50 ([7]; Influenza A virus, H3N2, MDCK): 48.5 ± 2 µM | Inhibitory effect (fold inhibition) [1]: >10-fold inhibition | antiviral activity in initial screen [1]: able to inhibit infection at doses above 50 μM without causing toxicity | EC50 ([8]; Influenza A virus, MDCK, pH1N1): 33.7 ± 1.3 µM | CC50 at 24 h (in vitro): 291 ± 14.8 µM

N[C@@H](CCC(=O)O)C(=O)O [L-Glutamic Acid]
Inhibitory effect [1]: No inhibition | antiviral activity in initial screen [1]: no antiviral activity

CC(=O)N[C@@H]1[C@@H](O)[C@H](O)[C@@H](CO)O[C@@H]1O [N-Acetyl-D-Glucosamine]
Inhibitory effect [1]: No inhibition | antiviral activity in initial screen [1]: no antiviral activity

O=C1CC[C@@]2(O)[C@H]3Cc4ccc(O)c5c4[C@@]2(CCN3CC2CC2)[C@H]1O5 [Naltrexone]
reduction of viral titers [2]: 100 fold | effect on lung viral titers (PR8 [3]): no significant effect | EC50 (PR8 [4]; Influenza A virus, PR8, MDCK): 4.7 ± 0.2 µM | EC50 [5]: 5 to 50 µM | CC50 at 24 h (MTT assay (cytotoxicity)): 5230 ± 227 µM | inhibition efficiency [7]: less efficient | EC50 ([7]; Influenza A virus, H3N2, MDCK): > 500 µM | Inhibitory effect (fold inhibition) [1]: >10-fold inhibition | antiviral activity in initial screen [1]: able to inhibit infection at doses above 50 μM without causing toxicity | EC50 ([8]; Influenza A virus, MDCK, pH1N1): 48 ± 3.2 µM

CCOC(=O)C1=C[C@@H](OC(CC)CC)[C@H](NC(C)=O)[C@@H](N)C1 [Oseltamivir phosphate, oseltamivir phosphate]
reduction of lung titers (PR8 [3]): 28 fold | clinical score [6]: minimal clinical score peaking on day 3 | reduction in nasal wash titers ([6]; po): 10 fold

CCOC(=O)C1=C[C@@H](OC(CC)CC)[C@H](NC(C)=O)[C@@H](N)C1 [Oseltamivir]
EC50 (PR8 [4]; Influenza A virus, PR8, MDCK): 0.005 ± 0.0004 µM | EC50 ([7]; Influenza A virus, H3N2, MDCK): 0.05 ± 0.003 µM | EC50 ([8]; Influenza A virus, MDCK, pH1N1): 0.2 ± 0.05 µM | CC50 at 24 h (in vitro): 470 ± 12.3 µM

O=C1CCC(N2C(=O)c3ccccc3C2=O)C(=O)N1 (centres unmarked) [Thalidomide]
Inhibitory effect [1]: No inhibition | antiviral activity in initial screen [1]: no antiviral activity

CC[C@]1(O)C[C@@H]2CN(CCc3c([nH]c4ccccc34)[C@@](C(=O)OC)(c3cc4c(cc3OC)N(C)[C@H]3[C@@](O)(C(=O)OC)[C@H](OC(C)=O)[C@]5(CC)C=CCN6CC[C@]43[C@@H]65)C2)C1 [Vinblastine]
Inhibitory effect [1]: toxic | antiviral activity [1]: no antiviral activity | toxicity in the screen [1]: pronounced toxicity

CCC(CC)O[C@@H]1C=C(C(=O)O)C[C@H](N)[C@H]1NC(C)=O [oseltamivir carboxylate]
concentration completely inhibiting replication [2]: higher than 5 μM | EC50 (PR8 [4]; read-out: EC50): 0.005 µM | EC50 [8]: ~0.2 µM
